Test results reported in patent US20170348269A1, “TREATMENT OF UREA CYCLE DISORDERS IN NEONATES AND INFANTS” (Horizon Therapeutics, LLC, priority 2016, published 2017).

Assays:
Format in all cases: in vivo, human
[1] = HPN-100-012 switch-over study, pharmacokinetics of HPN-100 and NaPBA in pediatric UCD patients; settings: HPN-100-012 (N = 15), TID with meals, arithmetic mean
Experimental: HPN-100-012, an open-label, fixed sequence, switch-over study of the safety, PK and efficacy of HPN-100 compared to NaPBA in patients with UCDs, with a 12-month safety extension part. The switch-over part of the study and the 12-month safety extension are complete. The switch-over part was conducted at 7 U.S. centers and enrolled 15 pediatric UCD patients between 29 days and <6 year of age, all of whom completed the study. After review of all the safety data by the DSMB, 8 additional subjects were enrolled in the study after the switch-over phase was completed. The primary efficacy endpoint was the 24-hour AUC (area under the curve) for blood ammonia on Day 1 compared with Day 10.
(§1) The pharmacokinetics of the short term studies can be summarized as follows. Mean exposure levels of HPN-100 metabolites PBA, PAA, and PAGN after doses of HPN-100 and NaPBA with meals (TID) in pediatric (29 days to 17 years of age) UCD patients in HPN-100-005 and HPN-100-012 studies are summarized below. The mean exposure to PBA, the parent metabolite, and mean exposure to PAGN, the terminal metabolite, show no systematic variation across age groups, while PAA exposure tended to decrease with increasing age, a finding consistent with those from population PK modeling which indicate that the rate of clearance/metabolism of PAA varies directly with body size. While systemic metabolite exposure, assessed as peak plasma concentration (Cmax) or AUC, is generally similar for HPN-100 and NaPBA, the minimum concentration (Cmin-ss) was higher—and/or percent-fluctuation less—for plasma PAGN, a finding consistent with slower gastrointestinal absorption of PBA when administered orally as HPN-100.

[2] = HPN-100-005 pharmacokinetics of HPN-100 and NaPBA in pediatric UCD patients; settings: HPN-100-005 (N = 11)
Text: as §1

[3] = test system: blood ammonia in pediatric patients with UCDs; experiment: HPN-100-012 open-label fixed sequence switch-over study, blood ammonia control
Text: HPN-100-012, an open-label, fixed sequence, switch-over study of the safety, PK and efficacy of HPN-100 compared to NaPBA in patients with UCDs, with a 12-month safety extension part. […] After review of all the safety data by the DSMB, 8 additional subjects were enrolled in the study after the switch-over phase was completed. The primary efficacy endpoint was the 24-hour AUC (area under the curve) for blood ammonia on Day 1 compared with Day 10.

[4] = pediatric UCD patients, TID with meals, arithmetic mean

O=C([O-])CCCc1ccccc1.[Na+] [NaPBA, sodium phenylbutyrate]
Plasma PAA % Fluctuation [1]: 1289% | Plasma PAA AUC0-24 [1]: 1458 µg·h/mL | Plasma PAA CLss/F [1]: 94249 mL/min | Plasma PAGN CLss/F [1]: 14360 mL/min | Plasma PBA CLss/F [1]: 112093 mL/min | Plasma PBA Cmin-ss [1]: 0.993 µg/mL | Plasma PAA CLss/F [2, 4]: 34391 mL/min | Plasma PBA CLss/F [2, 4]: 145463 mL/min | Plasma PAA Cmin-ss ([2]; pediatric UCD patients, TID with meals, arithmetic mean (CV %)): 0.674 µg/mL | U-PAGN Ae0-12 ([2]; urinary PAGN excreted 0-12 h, arithmetic mean): 7098020 µg | U-PAGN Ae12-24 ([2]; urinary PAGN excreted 12-24 h, arithmetic mean): 5414406 µg | U-PAGN Ae ([2]; urinary PAGN excreted, arithmetic mean): 12512426 µg | Mean blood ammonia at the 12-hour time point ([3]; HPN-100 Day 10, NaPBA Day 1, highest value for both treatments): 41.03 µmol/L | Mean blood ammonia at the 24-hour time point ([3]; NaPBA Day 1, lowest value on NaPBA): 34.66 µmol/L
